Starred links: 1 amine or outer side, 2 acyl side, 3 side chain; linkers in the order of their positions; H or OH if unused. Positions of bridges follow the written chain, without caps; N, C: chain ends. Residues, ends and D or L forms follow the SMILES beside them. *: point of attachment. C20 diacid = O=C(O)CCCCCCCCCCCCCCCCCCC(=O)*; γGlu = O=C(O)[C@H](CCC(=O)[*:2])N[*:1]
Test system: ad libitum fed rat
Test: Assay (I) efficacy testing on appetite (food intake) using an ad libitum fed rat model
Assay type: in vivo, Sprague Dawley (SD) rats
Description: In the following examples reference is made to the following Assays: • Assay (I)—Experimental protocol for efficacy testing on appetite using an ad libitum fed rat model • ASSAY (II)a—Functional assay—Human calcitonin and amylin receptor assay • ASSAY (II)b—Functional assay—Rat calcitonin and rat amylin receptor assays • ASSAY (III)—ThT fibrillation assays for the assessment of physical stability of protein formulations • ASSAY (IV)—Determination of solubility • ASSAY (V)—Determination of binding to the human amylin receptor • ASSAY (VI)—Determination of the binding to the rat amylin receptor • ASSAY (VII)—Determination of binding to the human calcitonin receptor • ASSAY (VIII)—Determination of binding to the rat calcitonin receptor • ASSAY (IX)—pK—Determination of T½ in mini-pig • ASSAY (X)—pK—Determination of T½ in rat Assay (I)—Experimental protocol for Efficacy Testing on Appetite Using an Ad Libitum Fed Rat Model
Sprague Dawley (SD) rats from Taconic Europe, Denmark are used for the experiments. The rats have a body weight 200-250 g at the start of experiment. The rats arrive at least 10-14 days before start of experiment to allow acclimatization to experimental settings. During this period the animals are handled at least 2 times. After arrival rats are housed individually for one week in a reversed light/dark phase (meaning that lights are off during daytime and on during nighttime) […]. Since rats are normally active and eat their major part of their daily food intake during the dark period, rats are dosed in the morning right before lights are turned off. This set-up results in the lowest data variation and highest test sensitivity. The experiment is conducted in the rats' home cages and rats have free access to food and water throughout the acclimatization period and the experiment period. Each dose of derivative is tested in a group of 5-8 rats. A vehicle group of 6-8 rats is included in each set of testing. Rats are dosed once according to body weight with a 0.01-3 mg/kg solution administered intraperitoneally (ip), orally (po) or subcutaneously (sc). The time of dosing is recorded for each group. After dosing, the rats are returned to their home cages, where they then have access to food and water. The food consumption is recorded individually continuously by on-line registration or manually every hour for 7 hours, and then after 24 h and sometimes 48 h. At the end of the experimental session, the animals are euthanised.
The individual data are recorded in Microsoft excel sheets. Outliers are excluded after applying the Grubbs statistical evaluation test for outliers, and the result is presented graphically using the GraphPad Prism program.

Compound | Food intake reduction 0-24 h 3 nmol/kg (%) (0-24 h) | Food intake reduction 24-48 h 3 nmol/kg (%) (24-48 h) | Food intake reduction 0-24 h 30 nmol/kg (%) (30 nmol/kg, 0-24 h) | Food intake reduction 24-48 h 30 nmol/kg (%) (30 nmol/kg, 24-48 h)
CC[C@H](C)[C@H](NC(=O)[C@@H]1CCCN1C(=O)CNC(=O)[C@H](Cc1ccccc1)NC(=O)[C@H](CC(N)=O)NC(=O)[C@H](CC(N)=O)NC(=O)[C@H](CO)NC(=O)[C@H](CO)NC(=O)[C@H](CCCNC(=N)N)NC(=O)[C@H](Cc1c[nH]cn1)NC(=O)[C@H](CC(C)C)NC(=O)[C@H](Cc1ccccc1)NC(=O)[C@H](CCC(=O)O)NC(=O)[C@H](C)NC(=O)[C@H](CC(C)C)NC(=O)[C@H](CCCNC(=N)N)NC(=O)[C@H](CCC(N)=O)NC(=O)[C@@H](NC(=O)[C@H](C)NC(=O)[C@@H]1CSSC[C@H](NC(=O)[C@H](CCC(=O)O)NC(=O)CC[C@H](NC(=O)CCCCCCCCCCCCCCCCCCC(=O)O)C(=O)O)C(=O)N[C@@H](CC(N)=O)C(=O)N[C@@H]([C@@H](C)O)C(=O)N[C@@H](C)C(=O)N[C@@H]([C@@H](C)O)C(=O)N1)[C@@H](C)O)C(=O)N[C@@H](CC(C)C)C(=O)N1CCC[C@H]1C(=O)N1CCC[C@H]1C(=O)N[C@H](C(=O)N[C@@H](CC(N)=O)C(=O)N[C@H](C(=O)NCC(=O)N[C@@H](CO)C(=O)N[C@@H](CC(N)=O)C(=O)N[C@H](C(=O)N1CCC[C@H]1C(N)=O)[C@@H](C)O)C(C)C)[C@@H](C)O [Example 10, N-alpha-[(S)-4-Carboxy-4-(19-carboxynonadecanoylamino)butyryl]-[Glu1,Glu14,His17,Arg18,Pro37]-pramlintide] ({C20 diacid-γGlu}-ECNTATCATQRLAEFLHRSSNNFGPILPPTNVGSNTP-NH2; disulfide 2-7 (inferred)) | 50% | 40% | – | –
CC[C@H](C)[C@H](NC(=O)[C@@H]1CCCN1C(=O)CNC(=O)[C@H](Cc1ccccc1)NC(=O)[C@H](CC(N)=O)NC(=O)[C@H](CC(N)=O)NC(=O)[C@H](CO)NC(=O)[C@H](CO)NC(=O)[C@H](Cc1c[nH]cn1)NC(=O)[C@H](Cc1c[nH]cn1)NC(=O)[C@H](CC(C)C)NC(=O)[C@H](Cc1ccccc1)NC(=O)[C@H](CCC(=O)O)NC(=O)[C@H](C)NC(=O)[C@H](CC(C)C)NC(=O)[C@H](CCCNC(=N)N)NC(=O)[C@H](CCC(N)=O)NC(=O)[C@@H](NC(=O)[C@H](C)NC(=O)[C@@H]1CSSC[C@H](NC(=O)[C@H](Cc2c[nH]cn2)NC(=O)[C@H](Cc2c[nH]cn2)NC(=O)[C@H](Cc2c[nH]cn2)NC(=O)CC[C@H](NC(=O)CCCCCCCCCCCCCCCCCCC(=O)O)C(=O)O)C(=O)N[C@@H](CC(N)=O)C(=O)N[C@@H]([C@@H](C)O)C(=O)N[C@@H](C)C(=O)N[C@@H]([C@@H](C)O)C(=O)N1)[C@@H](C)O)C(=O)N[C@@H](CC(C)C)C(=O)N1CCC[C@H]1C(=O)N1CCC[C@H]1C(=O)N[C@H](C(=O)N[C@@H](CC(N)=O)C(=O)N[C@H](C(=O)NCC(=O)N[C@@H](CO)C(=O)N[C@@H](CC(N)=O)C(=O)N[C@H](C(=O)N[C@@H](Cc1ccc(O)cc1)C(N)=O)[C@@H](C)O)C(C)C)[C@@H](C)O [Example 11, N-alpha-[(S)-4-Carboxy-4-(19-carboxynonadecanoylamino)butyryl]-His-His-[His1,Glu14,His17]-pramlintide] ({C20 diacid-γGlu}-HHHCNTATCATQRLAEFLHHSSNNFGPILPPTNVGSNTY-NH2; disulfide 4-9 (inferred); C-terminus assumed) | – | – | 87% | 92%
CC[C@H](C)[C@H](NC(=O)[C@@H]1CCCN1C(=O)CNC(=O)[C@H](Cc1ccccc1)NC(=O)[C@H](CC(N)=O)NC(=O)[C@H](CC(N)=O)NC(=O)[C@H](CO)NC(=O)[C@H](CO)NC(=O)[C@H](CCCNC(=N)N)NC(=O)[C@@H](NC(=O)[C@H](CC(C)C)NC(=O)[C@H](Cc1ccccc1)NC(=O)[C@H](CCC(=O)O)NC(=O)[C@H](C)NC(=O)[C@H](CC(C)C)NC(=O)[C@H](CCCNC(=N)N)NC(=O)[C@H](CCC(N)=O)NC(=O)[C@@H](NC(=O)[C@H](C)NC(=O)[C@@H]1CSSC[C@H](NC(=O)[C@H](Cc2c[nH]cn2)NC(=O)CC[C@H](NC(=O)CCCCCCCCCCCCCCCCCCC(=O)O)C(=O)O)C(=O)N[C@@H](CC(N)=O)C(=O)N[C@@H]([C@@H](C)O)C(=O)N[C@@H](C)C(=O)N[C@@H]([C@@H](C)O)C(=O)N1)[C@@H](C)O)C(C)C)C(=O)N[C@@H](CC(C)C)C(=O)N1CCC[C@H]1C(=O)N1CCC[C@H]1C(=O)N[C@H](C(=O)N[C@@H](CC(N)=O)C(=O)N[C@H](C(=O)NCC(=O)N[C@@H](CO)C(=O)N[C@@H](CC(N)=O)C(=O)N[C@H](C(=O)N[C@@H](Cc1ccc(O)cc1)C(N)=O)[C@@H](C)O)C(C)C)[C@@H](C)O [Example 15] ({C20 diacid-γGlu}-HCNTATCATQRLAEFLVRSSNNFGPILPPTNVGSNTY-NH2; disulfide 2-7 (inferred)) | 56% | 59% | – | –
CC[C@H](C)[C@H](NC(=O)[C@@H]1CCCN1C(=O)CNC(=O)[C@H](Cc1ccccc1)NC(=O)[C@H](CC(N)=O)NC(=O)[C@H](CC(N)=O)NC(=O)[C@H](CO)NC(=O)[C@H](CO)NC(=O)[C@H](Cc1c[nH]cn1)NC(=O)[C@H](Cc1c[nH]cn1)NC(=O)[C@H](CC(C)C)NC(=O)[C@H](Cc1ccccc1)NC(=O)[C@H](CCC(=O)O)NC(=O)[C@H](C)NC(=O)[C@H](CC(C)C)NC(=O)[C@H](CCCNC(=N)N)NC(=O)[C@H](CCC(N)=O)NC(=O)[C@@H](NC(=O)[C@H](C)NC(=O)[C@@H]1CSSC[C@H](NC(=O)[C@H](Cc2c[nH]cn2)NC(=O)[C@H](Cc2c[nH]cn2)NC(=O)CC[C@H](NC(=O)CCCCCCCCCCCCCCCCCCC(=O)O)C(=O)O)C(=O)N[C@@H](CC(N)=O)C(=O)N[C@@H]([C@@H](C)O)C(=O)N[C@@H](C)C(=O)N[C@@H]([C@@H](C)O)C(=O)N1)[C@@H](C)O)C(=O)N[C@@H](CC(C)C)C(=O)N1CCC[C@H]1C(=O)N1CCC[C@H]1C(=O)N[C@H](C(=O)N[C@@H](CC(N)=O)C(=O)N[C@H](C(=O)NCC(=O)N[C@@H](CO)C(=O)N[C@@H](CC(N)=O)C(=O)N[C@H](C(=O)N[C@@H](Cc1ccc(O)cc1)C(N)=O)[C@@H](C)O)C(C)C)[C@@H](C)O [Example 17, N-alpha-[(S)-4-Carboxy-4-(19-carboxynonadecanoylamino)butyryl]-His-[His1,Glu14,His17]-pramlintide] ({C20 diacid-γGlu}-HHCNTATCATQRLAEFLHHSSNNFGPILPPTNVGSNTY-NH2; disulfide 3-8) | 40% | 22% | – | –
CC[C@H](C)[C@H](NC(=O)[C@@H]1CCCN1C(=O)CNC(=O)[C@H](Cc1ccccc1)NC(=O)[C@H](CC(N)=O)NC(=O)[C@H](CC(N)=O)NC(=O)[C@H](CO)NC(=O)[C@H](CO)NC(=O)[C@H](Cc1c[nH]cn1)NC(=O)[C@H](Cc1c[nH]cn1)NC(=O)[C@H](CC(C)C)NC(=O)[C@H](Cc1ccccc1)NC(=O)[C@H](CCC(=O)O)NC(=O)[C@H](C)NC(=O)[C@H](CC(C)C)NC(=O)[C@H](CCCNC(=N)N)NC(=O)[C@H](CCC(N)=O)NC(=O)[C@@H](NC(=O)[C@H](C)NC(=O)[C@@H]1CSSC[C@H](NC(=O)[C@H](Cc2c[nH]cn2)NC(=O)CC[C@H](NC(=O)CCCCCCCCCCCCCCCCCCC(=O)O)C(=O)O)C(=O)N[C@@H](CC(N)=O)C(=O)N[C@@H]([C@@H](C)O)C(=O)N[C@@H](C)C(=O)N[C@@H]([C@@H](C)O)C(=O)N1)[C@@H](C)O)C(=O)N[C@@H](CC(C)C)C(=O)N1CCC[C@H]1C(=O)N1CCC[C@H]1C(=O)N[C@H](C(=O)N[C@@H](CC(N)=O)C(=O)N[C@H](C(=O)NCC(=O)N[C@@H](CO)C(=O)N[C@@H](CC(N)=O)C(=O)N[C@H](C(=O)N[C@@H](Cc1ccc(O)cc1)C(N)=O)[C@@H](C)O)C(C)C)[C@@H](C)O [Example 18, N-alpha-[(S)-4-Carboxy-4-(19-carboxynonadecanoylamino)butyryl]-[His1,Glu14,His17]-pramlintide] ({C20 diacid-γGlu}-HCNTATCATQRLAEFLHHSSNNFGPILPPTNVGSNTY-NH2; disulfide 2-7) | 40% | 32% | – | –

From US8741836B2, “Polypeptides” (Novo Nordisk A/S, priority 2011, dated 2014)
